Experiment: gradient 5% acetonitrile 3 min, to 50% in 2 min, to 85% in 15 min, held 3 min, 100 µL/min
Settings: column: Zorbax Extend-C18 2.1 x 50 mm; eluents: water / acetonitrile, 0.1% formic acid
Outline: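 Retention times of pure standards were taken from adduct peaks that were selected by computer and manually inspected. Over 3 months, mixtures of ~100 molecules were run by HPLC–quadrupole time-of-flight mass spectrometry in positive and negative ionization mode. The Zorbax Extend-C18 column (2.1 × 50 mm, 1.8 μm) ran at 100 μL/min in water and acetonitrile, each containing 0.1% formic acid, with 40 μL dead volume and 900 μL dwell volume.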

| SMILES | RP-LC retention time [s] |
| --- | --- |
| O=C(Cn1nc(Cc2cccnc2)c2ccccc2c1=O)N1CC=C(c2ccccc2)CC1 | 680 |
| COc1ccc(OC)c(CNC(=O)c2nc(N3CCOCC3)c3ccccc3n2)c1 | 686 |
| C#CCOCC1CCCN(S(=O)(=O)Cc2ccccc2)C1 (stereo not drawn) | 840 |
| COc1ccc(CNC(=O)c2csc(-c3cn(C)c4ncccc34)n2)c(OC)c1 | 924 |
| O=C(NCc1ccccc1)C1CCN(S(=O)(=O)c2cc(-c3noc(C4CC4)n3)cs2)CC1 | 935 |
| Cc1ccc(NC(=O)c2cccn2Cc2noc(C)n2)c(Br)c1 | 942 |
| COc1ccc(-c2noc(CS(=O)(=O)c3ccc(C)cc3)n2)cc1OC | 990 |
| O=C(c1ccc2nsnc2c1)N(Cc1ccsc1)C1CC1 | 861 |
| Cn1cnc(S(=O)(=O)N2CCC(C(=O)Nc3cccc(Cl)c3)CC2)c1 | 753 |
| Cc1cccc(Cn2c(C)c(CNCCc3ccco3)c(C(=O)O)c2C)c1 | 720 |
| Fc1ccc(-c2noc(Cc3nc(-c4ccc(Br)cc4)cs3)n2)cc1 | 1340 |
| Cc1cccc(-c2ncccc2CNS(=O)(=O)c2ccccc2Br)c1 | 731 |
| Cc1nnc([C@@H]2CC(F)(F)CN2C(=O)c2ccc3c(c2)OCO3)o1 | 703 |
| Cc1ccnc(NC(=O)C2CCN(S(=O)(=O)c3cc(-c4noc(C5CC5)n4)ccc3C)CC2)c1 | 811 |
| CCNC(=O)Nc1ccc(OCC(=O)NC(C)c2cccc(OC)c2)nc1 (stereo not drawn) | 686 |
| O=C(Cc1ccccc1)NCc1nc(-c2ccc(-c3csc(C4CC4)n3)cc2)no1 | 1040 |
| Cc1ccc(-c2noc(CN3N=NC4C(=O)N(c5cccc(F)c5)C(=O)C43)n2)cc1C (stereo not drawn) | 897 |
| CC(=O)N1CCN(S(=O)(=O)c2ccc(C(=O)O)cc2)CC1 | 591 |
| CC(NC(=O)c1csc(C(=O)NC2CCCC2)n1)c1ccc(F)cc1 (stereo not drawn) | 931 |
| COc1ccc(-c2ccnc3nc(-c4ccco4)nn23)c(F)c1 | 819 |
| CC(C)c1cc(C(=O)N2CCCCC2)nc2ccnn12 | 767 |
| Cc1ccc(CNC(=O)CN2CCc3ccccc3C2C(=O)N2CCCCC2)cc1C (stereo not drawn) | 908 |
| CCOc1ccccc1N1C(=O)CC(N2CCC(C(N)=O)CC2)C1=O (stereo not drawn) | 589 |
| CC(C)C(=O)N1CCOc2ccc(N(C)C)cc2C1 | 575 |
| C(=C\CSc1ccccn1)/CSc1ccccn1 | 955 |
| COc1ccc(-c2csc(NC(=O)CS(=O)(=O)c3ccc(Cl)cc3)n2)cc1 | 1010 |

Now from value to compound:

| RP-LC retention time [s] | SMILES |
| --- | --- |
| 821 | COC(=O)C1=C(N)OC2=C(C(=O)CC(C)(C)C2)C1c1cccs1 (stereo not drawn) |
| 868 | CCn1ccc(C(=O)Nc2ccc(OCc3nnc(-c4ccccc4)o3)cc2)n1 |
| 686 | CCN1CCCn2nc(C3CCN(C(=O)C4CCCC4)CC3)cc2C1=O |
| 753 | O=C(CSc1c(-c2ccccc2)[nH]c2ccccc12)NCC1CCCO1 (stereo not drawn) |
| 796 | O=C(Nc1ccccc1)C1CC(=O)N(CCc2c[nH]c3ccc(F)cc23)C1 (stereo not drawn) |
| 714 | CCOc1cc(N)c(Cl)cc1C(=O)NCC1CN(Cc2ccc(F)cc2)CCO1 (stereo not drawn) |
| 658 | OCC1O[C@H](O)C(Cl)C(O)C1O (stereo partly drawn) |
| 804 | Cc1cc(C2CCCN2C(=O)Cc2ccccc2Cl)no1 (stereo not drawn) |
| 991 | COc1ccc(C(=O)N2C[C@H](c3nc(-c4ccccc4)no3)[C@@H](C)C2)cc1F |
| 768 | Cc1ccc(CNC(=O)c2ccc(NC(=O)C3CC3)cc2N2CCOCC2)o1 |
| 1000 | COc1ccc(CNC(=O)N2c3ccccc3CC2c2nc(C(C)C)no2)cc1 (stereo not drawn) |
| 837 | CC(=O)N1CCc2sc(C(=O)N3CCN(c4ccc(Cl)cc4)CC3)cc2C1 |
